Experimental data as given in patent US9796704B2, “Substituted quinazolines as receptor-type kinase inhibitors” (Symphony Evolution, Inc., priority 2002, dated 2017).

Target: EGFR (Homo sapiens (Human), UniProt P00533)
Assay: EGFR kinase inhibition, luciferase-coupled chemiluminescent assay (LCCA)
Settings: read-out: EGFR IC50
Method: Kinase activity and compound inhibition are investigated using one or more of the three assay formats described below. The ATP concentrations are selected near its Michaelis-Menten constant (KM) for each individual kinase. Dose-response experiments are performed at ten different inhibitor concentrations in a 384-well plate format. […] Typically H is close to unity.
In the LCCA assays, kinase activity is measured by the ATP consumption that is accurately measured by luciferase-coupled chemiluminescence. Greiner 384-well white clear bottom medium binding plates are used for LCCA. Briefly the kinase reaction is initiated by mixing compounds, ATP and kinases in a 20 μL volume. At the end of the kinase reaction, a 20 μL luciferase-luciferin mix is added and the chemiluminescent signal is read on a Wallac Victor^2 reader.

EGFR, sequence (P00533 672-1210): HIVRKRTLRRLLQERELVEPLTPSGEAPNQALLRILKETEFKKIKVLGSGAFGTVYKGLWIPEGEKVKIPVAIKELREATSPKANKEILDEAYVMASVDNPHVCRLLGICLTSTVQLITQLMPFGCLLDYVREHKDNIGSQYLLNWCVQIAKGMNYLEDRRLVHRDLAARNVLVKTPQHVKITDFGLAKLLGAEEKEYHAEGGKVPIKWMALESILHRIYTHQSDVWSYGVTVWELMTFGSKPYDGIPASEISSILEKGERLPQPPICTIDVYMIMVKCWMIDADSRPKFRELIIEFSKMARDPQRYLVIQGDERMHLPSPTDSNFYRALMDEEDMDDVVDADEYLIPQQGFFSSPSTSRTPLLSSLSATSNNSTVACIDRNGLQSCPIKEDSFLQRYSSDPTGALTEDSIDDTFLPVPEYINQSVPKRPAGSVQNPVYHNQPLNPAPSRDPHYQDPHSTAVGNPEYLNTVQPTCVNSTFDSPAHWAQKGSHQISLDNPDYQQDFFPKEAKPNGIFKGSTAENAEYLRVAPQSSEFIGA

IC50, < 50 nM:
COc1cc2c(Nc3ccc(Cl)c(Cl)c3)ncnc2cc1OCc1nc2ccccc2s1 [Example 162, 7-[(1,3-benzothiazol-2-ylmethyl)oxy]-N-(3,4-dichlorophenyl)-6-(methyloxy)quinazolin-4-amine]
COc1cc2c(Nc3ccc(Cl)c(Cl)c3)ncnc2cc1OCc1cnn(-c2ccccc2)c1 [Example 165, N-(3,4-dichlorophenyl)-6-(methyloxy)-7-{[(1-phenyl-1H-pyrazol-4-yl)methyl]oxy}quinazolin-4-amine]
COc1cc2c(Nc3ccc(Cl)c(Cl)c3)ncnc2cc1OCc1nc(-c2ccc(Cl)cc2)no1 [Example 168, 7-({[3-(4-chlorophenyl)-1,2,4-oxadiazol-5-yl]methyl}oxy)-N-(3,4-dichlorophenyl)-6-(methyloxy)quinazolin-4-amine]
COc1cc2c(Nc3ccc(Cl)c(Cl)c3)ncnc2cc1OCc1c(OC)ccc2cc(Br)ccc12 [Example 169, 7-({[6-bromo-2-(methyloxy)naphthalen-1-yl]methyl}oxy)-N-(3,4-dichlorophenyl)-6-(methyloxy)quinazolin-4-amine]
COc1cc2c(Nc3ccc(Cl)c(Cl)c3)ncnc2cc1OCc1ccc(Cl)nc1 [Example 171, 7-{[(6-chloropyridin-3-yl)methyl]oxy}-N-(3,4-dichlorophenyl)-6-(methyloxy)quinazolin-4-amine]
COc1cc2c(Nc3ccc(Cl)c(Cl)c3)ncnc2cc1OCc1csc(C)n1 [Example 173, N-(3,4-dichlorophenyl)-6-(methyloxy)-7-{[(2-methyl-1,3-thiazol-4-yl)methyl]oxy}quinazolin-4-amine]
COc1cc2c(Nc3ccc(Cl)c(Cl)c3)ncnc2cc1OCc1cc(Cl)cc2c1OCOC2 [Example 174, 7-{[(6-chloro-4H-1,3-benzodioxin-8-yl)methyl]oxy}-N-(3,4-dichlorophenyl)-6-(methyloxy)quinazolin-4-amine]
COc1cc2c(Nc3ccc(Cl)c(Cl)c3)ncnc2cc1OCc1cc(-c2ccccc2)no1 [Example 177, N-(3,4-dichlorophenyl)-6-(methyloxy)-7-{[(3-phenylisoxazol-5-yl)methyl]oxy}quinazolin-4-amine]
COc1cc2c(Nc3ccc(Cl)c(Cl)c3)ncnc2cc1OCc1c(C)cc(C)cc1C [Example 178, N-(3,4-dichlorophenyl)-6-(methyloxy)-7-{[(2,4,6-trimethylphenyl)methyl]oxy}quinazolin-4-amine]
COc1ccc(-c2cc(COc3cc4ncnc(Nc5ccc(Cl)c(Cl)c5)c4cc3OC)on2)cc1 [Example 180, N-(3,4-dichlorophenyl)-6-(methyloxy)-7-[({3-[4-(methyloxy)phenyl]isoxazol-5-yl}methyl)oxy]quinazolin-4-amine]
COc1cc2c(Nc3ccc(Cl)c(Cl)c3)ncnc2cc1OCc1c(C(F)(F)F)nn(C)c1Oc1ccc(Cl)cc1Cl [Example 181, N-(3,4-dichlorophenyl)-7-({[5-[(2,4-dichlorophenyl)oxy]-1-methyl-3-(trifluoromethyl)-1H-pyrazol-4-yl]methyl}oxy)-6-(methyloxy)quinazolin-4-amine]
COc1cc2c(Nc3ccc(Cl)c(Cl)c3)ncnc2cc1OCc1noc(COCc2ccccc2)n1 [Example 211, N-(3,4-dichlorophenyl)-6-(methyloxy)-7-{[(5-{[(phenylmethyl)oxy]methyl}-1,2,4-oxadiazol-3-yl)methyl]oxy}quinazolin-4-amine]
CCN1CCC[C@H]1c1noc(COc2cc3ncnc(Nc4ccc(Cl)c(Cl)c4)c3cc2OC)n1 [Example 255, N-(3,4-dichlorophenyl)-7-[({3-[(2S)-1-ethylpyrrolidin-2-yl]-1,2,4-oxadiazol-5-yl}methyl)oxy]-6-(methyloxy)quinazolin-4-amine]
